≈ marks a conversion by molar mass, not a printed value. Calls of active or inactive are those of the source. The calls are words filed in the database; no cut-off is given here.
Columns and labels:
Escherichia coli [1] = experiment: Binding affinity to Escherichia coli MRE600 23S rRNA assessed as protection of U2506 at 50 uM by footprinting assay relative to control in presence of CMCT
Escherichia coli [2] = experiment: Binding affinity to Escherichia coli MRE600 23S rRNA assessed as protection of U2506 at 5 uM by footprinting assay relative to control in presence of CMCT
Escherichia coli [3] = experiment: Binding affinity to Escherichia coli MRE600 23S rRNA assessed as protection of U2585 at 50 uM by footprinting assay relative to control in presence of CMCT
Escherichia coli [4] = experiment: Binding affinity to Escherichia coli MRE600 23S rRNA assessed as protection of U2585 at 5 uM by footprinting assay relative to control in presence of CMCT
Staphylococcus aureus [5] = experiment: Antimicrobial activity against methicillin-resistant Staphylococcus aureus USA300 after 20 hrs by two-fold broth dilution assay; assay type: functional; details: USA300, 20 h
Escherichia coli [6] = experiment: Antimicrobial activity against […] Escherichia coli AS19 after 20 hrs by two-fold broth dilution assay; assay type: functional; details: AS19, 20 h
Staphylococcus aureus [7] = experiment: Antimicrobial activity against […] Staphylococcus aureus RN4220 after 20 hrs by two-fold broth dilution assay; assay type: functional; details: RN4220, 20 h
Escherichia coli [8] = experiment: Binding affinity to Escherichia coli MRE600 23S rRNA assessed as protection of A2059 at 25 uM by footprinting assay relative to control in presence of DMS
Escherichia coli [9] = experiment: Binding affinity to Escherichia coli MRE600 23S rRNA assessed as protection of A2062 at 25 uM by footprinting assay relative to control in presence of DMS

C=C[C@]1(C)C[C@@H](OC(=O)CO)[C@]2(C)[C@H](C)CC[C@]3(CCC(=O)[C@@H]32)[C@@H](C)[C@@H]1O showed an Activity (Escherichia coli [1]) of 5%, an Activity (Escherichia coli [2]) of 15% and an Activity (Escherichia coli [3]) of 59%. For the same compound, the Activity (Escherichia coli [4]) was 73%.

For C=C[C@]1(C)C[C@@H](OC(=O)Cn2cc(-c3cccc(-n4cnc5c(N)ncnc54)c3)nn2)[C@]2(C)[C@H](C)CC[C@]3(CCC(=O)[C@H]32)[C@@H](C)[C@@H]1O, the MIC (Staphylococcus aureus [5]) was 0.06 µg/mL (≈ 0.0939 µM), the MIC (Escherichia coli [6]) was 0.5 µg/mL (≈ 0.783 µM) and the MIC (Staphylococcus aureus [7]) was 0.06 µg/mL (≈ 0.0939 µM).

Compound C=C[C@]1(C)C[C@@H](OC(=O)CSCCN(CC)CC)[C@]2(C)[C@H](C)CC[C@]3(CCC(=O)[C@H]32)[C@@H](C)[C@@H]1O [TIAMULIN] has an MIC (Staphylococcus aureus [5]) of 1 µg/mL (≈ 2.03 µM), an Activity (Escherichia coli [1]) of 3% and an Activity (Escherichia coli [2]) of 5%. For the same compound, the MIC (Escherichia coli [6]) was 0.25 µg/mL (≈ 0.506 µM), the Activity (Escherichia coli [3]) was 40% and the MIC (Staphylococcus aureus [7]) was 0.5 µg/mL (≈ 1.01 µM). It also gave an Activity (Escherichia coli [4]) of 41%.

With C=C[C@]1(C)C[C@@H](OC(=O)Cn2cc(/C=C/Cn3cnc4c(N)ncnc43)nn2)[C@]2(C)[C@H](C)CC[C@]3(CCC(=O)[C@H]32)[C@@H](C)[C@@H]1O the MIC (Staphylococcus aureus [5]) was 1 µg/mL (≈ 1.66 µM), the MIC (Escherichia coli [6]) was 2 µg/mL (≈ 3.32 µM) and the MIC (Staphylococcus aureus [7]) was 1 µg/mL (≈ 1.66 µM).

For C=C[C@]1(C)C[C@@H](OC(=O)Cn2cc(CN(CC)CC)nn2)[C@]2(C)[C@H](C)CC[C@]3(CCC(=O)[C@H]32)[C@@H](C)[C@@H]1O, the MIC (Staphylococcus aureus [5]) was > 4 µg/mL, the Activity (Escherichia coli [1]) was 8% and the Activity (Escherichia coli [2]) was 27%. The MIC (Escherichia coli [6]) was ≥ 4 µg/mL, the Activity (Escherichia coli [3]) was 28% and the MIC (Staphylococcus aureus [7]) was > 4 µg/mL. The Activity (Escherichia coli [4]) was 51%.

For C=C[C@]1(C)C[C@@H](OC(=O)CSC(C)(C)CNC(=O)[C@H](N)C(C)C)[C@]2(C)[C@H](C)CC[C@]3(CCC(=O)[C@H]32)[C@@H](C)[C@@H]1O [VALNEMULIN], the MIC (Staphylococcus aureus [5]) was 0.06 µg/mL (≈ 0.106 µM), the Activity (Escherichia coli [1]) was 2% and the Activity (Escherichia coli [2]) was 2%. It also gave an MIC (Escherichia coli [6]) of 0.03 µg/mL (≈ 0.0531 µM), an Activity (Escherichia coli [3]) of 12% and an MIC (Staphylococcus aureus [7]) of 0.03 µg/mL (≈ 0.0531 µM). For the same compound, the Activity (Escherichia coli [4]) was 10%.

With C=C[C@]1(C)C[C@@H](OC(=O)Cn2nncc2CCCn2cnc3c(N)ncnc32)[C@]2(C)[C@H](C)CC[C@]3(CCC(=O)[C@H]32)[C@@H](C)[C@@H]1O the Activity (Escherichia coli [8]) was “inactive”, the MIC (Staphylococcus aureus [5]) was > 4 µg/mL and the MIC (Escherichia coli [6]) was 4 µg/mL (≈ 6.61 µM). It also gave an MIC (Staphylococcus aureus [7]) of 4 µg/mL (≈ 6.61 µM).

In the case of C=C[C@]1(C)C[C@@H](OC(=O)Cn2cc(CCCn3cnc4c(N)ncnc43)nn2)[C@]2(C)[C@H](C)CC[C@]3(CCC(=O)[C@H]32)[C@@H](C)[C@@H]1O, the MIC (Staphylococcus aureus [5]) is reported as 2 µg/mL (≈ 3.31 µM), the MIC (Escherichia coli [6]) is reported as 2 µg/mL (≈ 3.31 µM) and the MIC (Staphylococcus aureus [7]) is reported as 2 µg/mL (≈ 3.31 µM).

C=C[C@]1(C)C[C@@H](OC(=O)Cn2cc(COCCn3cnc4c(N)ncnc43)nn2)[C@]2(C)[C@H](C)CC[C@]3(CCC(=O)[C@H]32)[C@@H](C)[C@@H]1O was tested, and the MIC (Staphylococcus aureus [5]) was > 4 µg/mL, the Activity (Escherichia coli [1]) was 4% and the Activity (Escherichia coli [2]) was 9%. For the same compound, the MIC (Escherichia coli [6]) was > 4 µg/mL, the Activity (Escherichia coli [3]) was 14% and the MIC (Staphylococcus aureus [7]) was > 4 µg/mL. For the same compound, the Activity (Escherichia coli [4]) was 27%.

With C=C[C@]1(C)C[C@@H](OC(=O)Cn2cc(-c3ccc(-n4cnc5c(N)ncnc54)cc3)nn2)[C@]2(C)[C@H](C)CC[C@]3(CCC(=O)[C@H]32)[C@@H](C)[C@@H]1O the Activity (Escherichia coli [8]) was “inactive”, the MIC (Staphylococcus aureus [5]) was 0.5 µg/mL (≈ 0.783 µM) and the MIC (Escherichia coli [6]) was 4 µg/mL (≈ 6.26 µM). The Activity (Escherichia coli [9]) was “inactive” and the MIC (Staphylococcus aureus [7]) was 0.5 µg/mL (≈ 0.783 µM).
